In PubChem BioAssay AID330 (DTP/NCI, 2004):
Where “and” joins values, the source holds several entries; their conditions need not be identical. Equal entries are not always repeated. Toxic doses and inconclusive results are not listed. The calls were made as follows: active = survival T/C of 150% or more; inactive = T/C below 125% in these data. Peptide text beside a SMILES is read from it.

System: P388 leukemia ip, CD2F1 mice, survival T/C
Test: NCI In Vivo Anticancer Drug Screen. Data for tumor model P388 Leukemia (intraperitoneal) in CD2F1 (CDF1) mice
Settings: endpoint: median survival time, higher = longer survival
Outline: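 Mice carrying the transplanted tumor received test compound or vehicle. Survival was recorded in each group, and the value is the treated-group measurement divided by that of the vehicle-treated control group.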

[1] = dose: 50.0 mg/kg/injection, schedule: Q01DX005 (ip), vehicle: Klucel (hydroxypropylcellulose) (HPC)
[2] = dose: 100.0 mg/kg/injection, schedule: Q01DX005 (ip), vehicle: Klucel (hydroxypropylcellulose) (HPC)
[3] = dose: 200.0 mg/kg/injection, schedule: Q01DX005 (ip), vehicle: Klucel (hydroxypropylcellulose) (HPC)
[4] = dose: 50.0 mg/kg/injection, schedule: Q01DX005 (ip), vehicle: saline
[5] = dose: 100.0 mg/kg/injection, schedule: Q01DX005 (ip), vehicle: saline
[6] = dose: 200.0 mg/kg/injection, schedule: Q01DX005 (ip), vehicle: saline
[7] = dose: 60.0 mg/kg/injection, schedule: Q01DX005 (ip), vehicle: Klucel (hydroxypropylcellulose) (HPC)
[8] = dose: 120.0 mg/kg/injection, schedule: Q01DX005 (ip), vehicle: Klucel (hydroxypropylcellulose) (HPC)
[9] = dose: 240.0 mg/kg/injection, schedule: Q01DX005 (ip), vehicle: Klucel (hydroxypropylcellulose) (HPC)
[10] = dose: 50.0 mg/kg/injection, schedule: Q01DX005 (ip), vehicle: saline with Tween-80
[11] = dose: 100.0 mg/kg/injection, schedule: Q01DX005 (ip), vehicle: saline with Tween-80
[12] = dose: 200.0 mg/kg/injection, schedule: Q01DX005 (ip), vehicle: saline with Tween-80
[13] = dose: 7.5 mg/kg/injection, schedule: Q01DX005 (ip), vehicle: Klucel (hydroxypropylcellulose) (HPC)
[14] = dose: 15.0 mg/kg/injection, schedule: Q01DX005 (ip), vehicle: Klucel (hydroxypropylcellulose) (HPC)
[15] = dose: 100.0 mg/kg/injection, schedule: Q04DX003 (ip), vehicle: saline
[16] = dose: 100.0 mg/kg/injection, schedule: Q01DX001 (ip), vehicle: Klucel (hydroxypropylcellulose) (HPC)

Measured: T/C

O=C(O)c1ccccc1Nc1cccc(C(F)(F)F)c1
inactive: dose: 12.5 mg/kg/injection, schedule: Q01DX009 (ip), vehicle: saline with Tween-80 103 % of control | dose: 25.0 mg/kg/injection, schedule: Q01DX009 (ip), vehicle: saline with Tween-80 98 % of control | dose: 50.0 mg/kg/injection, schedule: Q01DX009 (ip), vehicle: saline with Tween-80 97 % of control | dose: 100.0 mg/kg/injection, schedule: Q01DX009 (ip), vehicle: saline with Tween-80 107 % of control

O=C(CC1(O)C(=O)Nc2c(Cl)cccc21)c1cccs1 (stereo unspecified)
inactive: [1] 103 % of control | [2] 100 % of control | [3] 104 % of control

CN(C)CCCN1CCC2(CCSCC2)C1
inactive: [4] 102 % of control | [5] 99 % of control | [6] 91 % of control

O=c1c2ccc(S(=O)(=O)c3ccc4c(=O)n5c6ccccc6nc5c5cccc3c45)c3cccc(c32)c2nc3ccccc3n12
inactive: [7] 86 % of control | [8] 88 % of control | [9] 99 % of control

O=C1c2ccccc2C(=O)N1CC(O)COCc1ccccc1 (stereo unspecified)
inactive: [10] 102 % of control | [11] 98 % of control | [12] 100 % of control

O=C(NC(Cc1ccc(Br)cc1)C(=O)O)c1ccc(Cl)cc1 (stereo unspecified)
inactive: [1] 100 % of control | [2] 100 % of control | [3] 102 % of control

CC[PH+](CC)CC.CC[PH+](CC)CC.[Au]
inactive: dose: 0.15 mg/kg/injection, schedule: Q01DX009 (ip), vehicle: water 104 % of control and 91 % of control | dose: 0.31 mg/kg/injection, schedule: Q01DX009 (ip), vehicle: water 100 % of control and 107 % of control | dose: 0.62 mg/kg/injection, schedule: Q01DX009 (ip), vehicle: water 118 % of control and 122 % of control | dose: 1.25 mg/kg/injection, schedule: Q01DX009 (ip), vehicle: water 118 % of control

CC(=O)c1cc[c]([Sn]([CH3])([Cl])[c]2ccccc2)cc1 (stereo unspecified)
inactive: [13] 100 % of control | [14] 107 % of control | [7] 108 % of control

CCCCC(CC)COP(=O)(CC(CC)CCCC)OCC(CC)CCCC (stereo unspecified)
inactive: dose: 6.25 mg/kg/injection, schedule: Q01DX009 (ip), vehicle: saline 109 % of control | dose: 12.5 mg/kg/injection, schedule: Q01DX009 (ip), vehicle: saline 109 % of control | dose: 25.0 mg/kg/injection, schedule: Q01DX009 (ip), vehicle: saline 109 % of control | dose: 25.0 mg/kg/injection, schedule: Q04DX003 (ip), vehicle: saline 100 % of control | dose: 50.0 mg/kg/injection, schedule: Q04DX003 (ip), vehicle: saline 100 % of control | [15] 113 % of control

OCCN=Cc1ccccc1O.OCCN=Cc1ccccc1O.[Cu]
inactive: [1] 110 % of control

CN=C(C#N)c1ccccc1
inactive: [10] 100 % of control | [11] 98 % of control | [12] 99 % of control

CCCCN(C)c1ncnc2[nH]ncc12
inactive: [15] 100 % of control

O=C(O)CCC(=O)O
inactive: dose: 10.0 mg/kg/injection, schedule: Q01DX009 (ip), vehicle: water 90 % of control | dose: 20.0 mg/kg/injection, schedule: Q01DX009 (ip), vehicle: water 99 % of control and 109 % of control | dose: 40.0 mg/kg/injection, schedule: Q01DX009 (ip), vehicle: water 98 % of control and 94 % of control | dose: 80.0 mg/kg/injection, schedule: Q01DX009 (ip), vehicle: water 96 % of control and 91 % of control | dose: 160.0 mg/kg/injection, schedule: Q01DX009 (ip), vehicle: water 101 % of control and 102 % of control

CCOCCOC(=O)c1nc2c(N)nc(-c3ccccc3)nc2nc1N
inactive: dose: 15.0 mg/kg/injection, schedule: Q01DX009 (ip), vehicle: saline with Tween-80 98 % of control | dose: 30.0 mg/kg/injection, schedule: Q01DX009 (ip), vehicle: saline with Tween-80 98 % of control | dose: 60.0 mg/kg/injection, schedule: Q01DX009 (ip), vehicle: saline with Tween-80 91 % of control

CCC(C)(C(=O)Nc1ccc2nc(C)cc(N)c2c1)C(=O)Nc1ccc2nc(C)cc(N)c2c1
inactive: [10] 87 % of control | [11] 96 % of control | [12] 100 % of control

CCC(C)C(NC(=O)OCc1ccccc1)C(=O)ON1C(=O)CCC1=O (stereo unspecified)
inactive: dose: 66.0 mg/kg/injection, schedule: Q04DX003 (ip), vehicle: saline with Tween-80 100 % of control | dose: 100.0 mg/kg/injection, schedule: Q04DX003 (ip), vehicle: saline with Tween-80 104 % of control | dose: 150.0 mg/kg/injection, schedule: Q04DX003 (ip), vehicle: saline with Tween-80 109 % of control

CC(=O)C1CCC2=C(C1)C(=O)c1cc3c(-c4ccccc4)oc(-c4ccccc4)c3cc1C2=O (stereo unspecified)
inactive: [13] 87 % of control | [14] 94 % of control

CC(O)C(N)C(=O)NC(C(=O)NC(C(=O)O)C(C)O)C(C)O (stereo not drawn) (H-Thr-Thr-Thr-OH; configuration not given here)
inactive: [4] 104 % of control | [5] 92 % of control | [6] 104 % of control

Cc1nc2nnc(N)n2nc1C
inactive: dose: 100.0 mg/kg/injection, schedule: Q04DX003 (ip), vehicle: Klucel (hydroxypropylcellulose) (HPC) 106 % of control | dose: 200.0 mg/kg/injection, schedule: Q04DX003 (ip), vehicle: Klucel (hydroxypropylcellulose) (HPC) 97 % of control | dose: 400.0 mg/kg/injection, schedule: Q04DX003 (ip), vehicle: Klucel (hydroxypropylcellulose) (HPC) 96 % of control

Nc1nc(C2CCCCC2)cc(=O)[nH]1
inactive: [1] 87 % of control | [2] 97 % of control | [3] 97 % of control

OCC1OC(OC2C3CSC(O3)C(O)C2O)C(O)C(O)C1O (stereo unspecified)
inactive: dose: 50.0 mg/kg/injection, schedule: Q01DX009 (ip), vehicle: saline 105 % of control | dose: 100.0 mg/kg/injection, schedule: Q01DX009 (ip), vehicle: saline 106 % of control | dose: 200.0 mg/kg/injection, schedule: Q01DX009 (ip), vehicle: saline 106 % of control

CC(/C=N\Nc1ccc(Cl)c(Cl)c1)=N/NC(=O)C[n+]1ccccc1
inactive: dose: 25.0 mg/kg/injection, schedule: Q04DX002 (ip), vehicle: saline 108 % of control | dose: 50.0 mg/kg/injection, schedule: Q04DX002 (ip), vehicle: saline 104 % of control | dose: 100.0 mg/kg/injection, schedule: Q04DX002 (ip), vehicle: saline 102 % of control and 92 % of control

CNc1ccccc1CO
inactive: dose: 100.0 mg/kg/injection, schedule: Q04DX003 (ip), vehicle: other 95 % of control | dose: 200.0 mg/kg/injection, schedule: Q04DX003 (ip), vehicle: other 95 % of control | dose: 400.0 mg/kg/injection, schedule: Q04DX003 (ip), vehicle: other 90 % of control

N#CC(CCCC(C#N)c1ccccc1)c1ccccc1 (stereo unspecified)
inactive: dose: 50.0 mg/kg/injection, schedule: Q01DX001 (ip), vehicle: Klucel (hydroxypropylcellulose) (HPC) 106 % of control | [16] 108 % of control

O=C(C(O)C(O)C(O)CO)n1cnc2c1ncn1c(=O)cc(CI)nc21 (stereo unspecified)
inactive: dose: 100.0 mg/kg/injection, schedule: Q01DX001 (ip), vehicle: saline with Tween-80 105 % of control | dose: 200.0 mg/kg/injection, schedule: Q01DX001 (ip), vehicle: saline with Tween-80 97 % of control | dose: 400.0 mg/kg/injection, schedule: Q01DX001 (ip), vehicle: saline with Tween-80 111 % of control

CCOC(=O)c1ccc(OCC#N)cc1
inactive: [1] 93 % of control | [2] 102 % of control | [3] 98 % of control

CCN(CC)C(=O)Cn1cc([N+](=O)[O-])sc1=NC(=O)c1ccco1
inactive: [16] 100 % of control | dose: 200.0 mg/kg/injection, schedule: Q01DX001 (ip), vehicle: Klucel (hydroxypropylcellulose) (HPC) 101 % of control

Cc1cc(C)c(CC(=O)O)c(C)c1
inactive: dose: 25.0 mg/kg/injection, schedule: Q01DX009 (ip), vehicle: Klucel (hydroxypropylcellulose) (HPC) 111 % of control | dose: 50.0 mg/kg/injection, schedule: Q01DX009 (ip), vehicle: Klucel (hydroxypropylcellulose) (HPC) 106 % of control | dose: 100.0 mg/kg/injection, schedule: Q01DX009 (ip), vehicle: Klucel (hydroxypropylcellulose) (HPC) 105 % of control | dose: 200.0 mg/kg/injection, schedule: Q01DX009 (ip), vehicle: Klucel (hydroxypropylcellulose) (HPC) 107 % of control

CCOC(=O)C1C(c2ccc(OC)cc2OC)c2cc3c(cc2OC1(C)N1CCCC1)OCO3 (stereo unspecified)
inactive: [7] 90 % of control | [8] 97 % of control | [9] 94 % of control

S=P(Oc1ccccc1)(N1CCCCN1)N1CCCCN1
inactive: [7] 97 % of control | [8] 107 % of control | [9] 100 % of control
